Measured values published in PubChem BioAssay AID2060614 (Molecular Pharmacology Branch, DTP, NCI, 2025).

Test system: 598228-144-R-J1-PDC complex spheroids, viability
Experiment: Anticancer human tumor 598228-144-R-J1-PDC patient-derived serous endometrial adenocarcinoma cell line growth inhibition [CLK]
Conditions: for IC50: curve of first compound; for viability, T/C: stronger effect = lower value
How it was run: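 Patient-derived tumor cells grown as complex spheroids with HUVEC endothelial cells and mesenchymal stem cells, treated with drug combinations. Concentrations descend in half-log steps from near clinical Cmax, or from 10 microM if Cmax unknown.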

[1] = second compound 0.0316 µM, first compound 0.0316 µM
[2] = second compound 0.0316 µM, first compound 0.1 µM
[3] = second compound 0.0316 µM, first compound 0.316 µM
[4] = second compound 0.0316 µM, first compound 1 µM
[5] = second compound 0.1 µM, first compound 0.0316 µM
[6] = second compound 0.1 µM, first compound 0.1 µM
[7] = second compound 0.1 µM, first compound 0.316 µM
[8] = second compound 0.1 µM, first compound 1 µM
[9] = second compound 0.316 µM, first compound 0.0316 µM
[10] = second compound 0.316 µM, first compound 0.1 µM
[11] = second compound 0.316 µM, first compound 0.316 µM
[12] = second compound 0.316 µM, first compound 1 µM
[13] = second compound 1 µM, first compound 0.0316 µM
[14] = second compound 1 µM, first compound 0.1 µM
[15] = second compound 1 µM, first compound 0.316 µM
[16] = second compound 1 µM, first compound 1 µM
[17] = second compound 3.16 µM, first compound 0.0316 µM
[18] = second compound 3.16 µM, first compound 0.1 µM
[19] = second compound 3.16 µM, first compound 0.316 µM
[20] = second compound 3.16 µM, first compound 1 µM
[21] = second compound 10 µM, first compound 0.0316 µM
[22] = second compound 10 µM, first compound 0.1 µM
[23] = second compound 10 µM, first compound 0.316 µM
[24] = second compound 10 µM, first compound 1 µM
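Note: spheroids exposed to compounds for seven days before readout.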
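Throughout, for viability, T/C: 100% = DMSO vehicle control wells.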

`CCN1CCN(Cc2ccc(Nc3ncc(F)c(-c4cc(F)c5nc(C)n(C(C)C)c5c4)n3)nc2)CC1` + CNC(=O)c1ccc(Nc2nc(OC3CCCC3)c3c(-c4ccc5nc(C)oc5c4)c[nH]c3n2)c(OC)c1 was tested, and the IC50 (second compound 0.0316 µM) was over 1 µM, the IC50 (second compound 0.1 µM) was over 1 µM and the IC50 (second compound 0.316 µM) was over 1 µM. It also gave an IC50 (second compound 1 µM) of over 1 µM, an IC50 (second compound 3.16 µM) of over 1 µM and an IC50 (second compound 10 µM) of over 1 µM. It also gave a viability, T/C (second compound 0.0316 µM, first compound 0.00316 µM) of 104%, a viability, T/C (second compound 0.0316 µM, first compound 0.01 µM) of 114% and a viability, T/C [1] of 105%. It also gave a viability, T/C [2] of 116%, a viability, T/C [3] of 112% and a viability, T/C [4] of 88.8%. The viability, T/C (second compound 0.1 µM, first compound 0.00316 µM) was 110%, the viability, T/C (second compound 0.1 µM, first compound 0.01 µM) was 110% and the viability, T/C [5] was 126%. It also gave a viability, T/C [6] of 109%, a viability, T/C [7] of 120% and a viability, T/C [8] of 97.5%. The viability, T/C (second compound 0.316 µM, first compound 0.00316 µM) was 119%, the viability, T/C (second compound 0.316 µM, first compound 0.01 µM) was 107% and the viability, T/C [9] was 118%. For the same molecule, the viability, T/C [10] was 99%, the viability, T/C [11] was 108% and the viability, T/C [12] was 87.5%. For the same molecule, the viability, T/C (second compound 1 µM, first compound 0.00316 µM) was 105%, the viability, T/C (second compound 1 µM, first compound 0.01 µM) was 89.8% and the viability, T/C [13] was 91.8%. For the same molecule, the viability, T/C [14] was 119%, the viability, T/C [15] was 106% and the viability, T/C [16] was 78.6%. The viability, T/C (second compound 3.16 µM, first compound 0.00316 µM) was 95.2%, the viability, T/C (second compound 3.16 µM, first compound 0.01 µM) was 92.5% and the viability, T/C [17] was 82.3%. The viability, T/C [18] was 92.5%, the viability, T/C [19] was 95.8% and the viability, T/C [20] was 93%. For the same molecule, the viability, T/C (second compound 10 µM, first compound 0.00316 µM) was 95.5%, the viability, T/C (second compound 10 µM, first compound 0.01 µM) was 89.4% and the viability, T/C [21] was 90.2%. It also gave a viability, T/C [22] of 96.8%, a viability, T/C [23] of 108% and a viability, T/C [24] of 80.5%.
Molecule `CC(CO)NC(=O)c1cc(-c2ccc(Cl)cc2)nn(-c2cnn(C)c2)c1=O` (centres undefined) + CNC(=O)c1ccc(Nc2nc(OC3CCCC3)c3c(-c4ccc5nc(C)oc5c4)c[nH]c3n2)c(OC)c1 has an IC50 (second compound 0.0316 µM) of over 10 µM, an IC50 (second compound 0.1 µM) of over 10 µM and an IC50 (second compound 0.316 µM) of over 10 µM. It also gave an IC50 (second compound 1 µM) of over 10 µM, an IC50 (second compound 3.16 µM) of over 10 µM and an IC50 (second compound 10 µM) of over 10 µM. For the same molecule, the viability, T/C [1] was 124%, the viability, T/C [2] was 102% and the viability, T/C [3] was 102%. For the same molecule, the viability, T/C [4] was 104%, the viability, T/C (second compound 0.0316 µM, first compound 3.16 µM) was 92.8% and the viability, T/C (second compound 0.0316 µM, first compound 10 µM) was 94.4%. The viability, T/C [5] was 94.9%, the viability, T/C [6] was 107% and the viability, T/C [7] was 96.5%. The viability, T/C [8] was 103%, the viability, T/C (second compound 0.1 µM, first compound 3.16 µM) was 106% and the viability, T/C (second compound 0.1 µM, first compound 10 µM) was 83.8%. It also gave a viability, T/C [9] of 111%, a viability, T/C [10] of 104% and a viability, T/C [11] of 92.8%. It also gave a viability, T/C [12] of 96.5%, a viability, T/C (second compound 0.316 µM, first compound 3.16 µM) of 106% and a viability, T/C (second compound 0.316 µM, first compound 10 µM) of 96.8%. It also gave a viability, T/C [13] of 111%, a viability, T/C [14] of 104% and a viability, T/C [15] of 112%. The viability, T/C [16] was 105%, the viability, T/C (second compound 1 µM, first compound 3.16 µM) was 111% and the viability, T/C (second compound 1 µM, first compound 10 µM) was 87.6%. It also gave a viability, T/C [17] of 85.7%, a viability, T/C [18] of 94.7% and a viability, T/C [19] of 92.2%. For the same molecule, the viability, T/C [20] was 102%, the viability, T/C (second compound 3.16 µM, first compound 3.16 µM) was 94.8% and the viability, T/C (second compound 3.16 µM, first compound 10 µM) was 81.4%. It also gave a viability, T/C [21] of 90.4%, a viability, T/C [22] of 77% and a viability, T/C [23] of 95.8%. For the same molecule, the viability, T/C [24] was 77.5%, the viability, T/C (second compound 10 µM, first compound 3.16 µM) was 112% and the viability, T/C (second compound 10 µM, first compound 10 µM) was 83.1%.
